From the NIST ThermoML archive (doi:10.1021/acs.jced.5b00259)

Assay: xn = mol fraction of the nth substance listed
Conditions: 100 kPa, Liquid

CCOS(=O)(=O)[O-].CC[NH+]=C(N(C)C)N(C)C [2-ethyl-1,1,3,3-tetramethylguanidinium ethyl sulfate] + CCCO
Conditions	mass density [kg/m3]	viscosity [mPa·s]
293.15 K, x1 = 0.0997	898.6	4.426
293.15 K, x1 = 0.2003	964.92	8.127
293.15 K, x1 = 0.3066	1016.48	16.78
293.15 K, x1 = 0.3996	1051.52	27.09
293.15 K, x1 = 0.5016	1082.4	48.51
293.15 K, x1 = 0.5989	1106.32	82.64
293.15 K, x1 = 0.6984	1126.59	134.4
293.15 K, x1 = 0.7999	1144.02	243.1
293.15 K, x1 = 0.8981	1158.38	405.5
293.15 K, x1 = 1	1170.76	673.4
298.15 K, x1 = 0.0997	894.7	3.9
298.15 K, x1 = 0.2003	961.16	7.044
298.15 K, x1 = 0.3066	1012.78	13.97
298.15 K, x1 = 0.3996	1047.86	22.36
298.15 K, x1 = 0.5016	1078.78	38.84
298.15 K, x1 = 0.5989	1102.73	63.88
298.15 K, x1 = 0.6984	1123.01	100.3
298.15 K, x1 = 0.7999	1140.47	174.3
298.15 K, x1 = 0.8981	1154.86	278.2
298.15 K, x1 = 1	1167.24	441.5
303.15 K, x1 = 0.0997	890.9	3.455
303.15 K, x1 = 0.2003	957.41	6.152
303.15 K, x1 = 0.3066	1009.1	12.3
303.15 K, x1 = 0.3996	1044.26	18.74
303.15 K, x1 = 0.5016	1075.17	31.58
303.15 K, x1 = 0.5989	1099.15	50.4
303.15 K, x1 = 0.6984	1119.44	76.66
303.15 K, x1 = 0.7999	1136.93	128.5
303.15 K, x1 = 0.8981	1151.36	197.5
303.15 K, x1 = 1	1163.76	302.5
308.15 K, x1 = 0.0997	887.03	3.077
308.15 K, x1 = 0.2003	953.65	5.412
308.15 K, x1 = 0.3066	1005.42	10.72
308.15 K, x1 = 0.3996	1040.62	15.88
308.15 K, x1 = 0.5016	1071.58	26.07
308.15 K, x1 = 0.5989	1095.58	40.53
308.15 K, x1 = 0.6984	1115.89	59.78
308.15 K, x1 = 0.7999	1133.41	97.5
308.15 K, x1 = 0.8981	1147.85	145.3
308.15 K, x1 = 1	1160.28	214.6
313.15 K, x1 = 0.0997	883.16	2.751
313.15 K, x1 = 0.2003	949.88	4.79
313.15 K, x1 = 0.3066	1001.73	9.145
313.15 K, x1 = 0.3996	1036.98	13.59
313.15 K, x1 = 0.5016	1068	21.82
313.15 K, x1 = 0.5989	1092.03	33.1
313.15 K, x1 = 0.6984	1112.37	47.59
313.15 K, x1 = 0.7999	1129.9	75.47
313.15 K, x1 = 0.8981	1144.35	110
313.15 K, x1 = 1	1156.8	157.2
318.15 K, x1 = 0.0997	879.26	2.471
318.15 K, x1 = 0.2003	946.11	4.266
318.15 K, x1 = 0.3066	998.04	7.69
318.15 K, x1 = 0.3996	1033.37	11.73
318.15 K, x1 = 0.5016	1064.43	18.48
318.15 K, x1 = 0.5989	1088.5	27.42
318.15 K, x1 = 0.6984	1108.86	38.53
318.15 K, x1 = 0.7999	1126.4	59.7
318.15 K, x1 = 0.8981	1140.87	84.19
318.15 K, x1 = 1	1153.33	118.3
323.15 K, x1 = 0.0997	875.35	2.228
323.15 K, x1 = 0.2003	942.33	3.819
323.15 K, x1 = 0.3066	994.35	6.777
323.15 K, x1 = 0.3996	1029.73	10.2
323.15 K, x1 = 0.5016	1060.87	15.79
323.15 K, x1 = 0.5989	1084.97	23.01
323.15 K, x1 = 0.6984	1105.36	31.66
323.15 K, x1 = 0.7999	1122.93	47.99
323.15 K, x1 = 0.8981	1137.4	66.48
323.15 K, x1 = 1	1149.87	91.22

CCOS(=O)(=O)[O-].CC[NH+]=C(N(C)C)N(C)C [2-ethyl-1,1,3,3-tetramethylguanidinium ethyl sulfate] + CCO
Conditions	mass density [kg/m3]	viscosity [mPa·s]
293.15 K, x1 = 0.0998	910.21	2.824
293.15 K, x1 = 0.2003	984.3	5.826
293.15 K, x1 = 0.3006	1033.78	11.42
293.15 K, x1 = 0.4016	1069.61	22.83
293.15 K, x1 = 0.498	1095.76	40.88
293.15 K, x1 = 0.5996	1117.54	73.39
293.15 K, x1 = 0.6976	1134.51	127.4
293.15 K, x1 = 0.7969	1148.58	213.6
293.15 K, x1 = 0.9008	1160.83	385.6
293.15 K, x1 = 1	1170.76	673.4
298.15 K, x1 = 0.0998	906.2	2.546
298.15 K, x1 = 0.2003	980.34	5.136
298.15 K, x1 = 0.3006	1030	9.821
298.15 K, x1 = 0.4016	1065.96	19.07
298.15 K, x1 = 0.498	1092.12	33.16
298.15 K, x1 = 0.5996	1113.91	57.2
298.15 K, x1 = 0.6976	1130.91	95.44
298.15 K, x1 = 0.7969	1145.02	154
298.15 K, x1 = 0.9008	1157.3	264.4
298.15 K, x1 = 1	1167.24	441.5
303.15 K, x1 = 0.0998	902.18	2.307
303.15 K, x1 = 0.2003	976.55	4.559
303.15 K, x1 = 0.3006	1026.22	8.524
303.15 K, x1 = 0.4016	1062.27	16.15
303.15 K, x1 = 0.498	1088.47	27.11
303.15 K, x1 = 0.5996	1110.31	45.41
303.15 K, x1 = 0.6976	1127.33	73.08
303.15 K, x1 = 0.7969	1141.46	114.2
303.15 K, x1 = 0.9008	1153.79	187.9
303.15 K, x1 = 1	1163.76	302.5
308.15 K, x1 = 0.0998	898.18	2.096
308.15 K, x1 = 0.2003	972.66	4.072
308.15 K, x1 = 0.3006	1022.45	7.459
308.15 K, x1 = 0.4016	1058.6	13.81
308.15 K, x1 = 0.498	1084.84	22.56
308.15 K, x1 = 0.5996	1106.73	36.71
308.15 K, x1 = 0.6976	1123.77	57.39
308.15 K, x1 = 0.7969	1137.92	86.55
308.15 K, x1 = 0.9008	1150.29	134.9
308.15 K, x1 = 1	1160.28	214.6
313.15 K, x1 = 0.0998	894.15	1.91
313.15 K, x1 = 0.2003	968.7	3.656
313.15 K, x1 = 0.3006	1018.66	6.577
313.15 K, x1 = 0.4016	1054.91	11.92
313.15 K, x1 = 0.498	1081.22	19.04
313.15 K, x1 = 0.5996	1103.16	30.14
313.15 K, x1 = 0.6976	1120.23	45.97
313.15 K, x1 = 0.7969	1134.39	67.31
313.15 K, x1 = 0.9008	1146.78	103.7
313.15 K, x1 = 1	1156.8	157.2
318.15 K, x1 = 0.0998	890.12	1.746
318.15 K, x1 = 0.2003	964.81	3.298
318.15 K, x1 = 0.3006	1014.86	5.839
318.15 K, x1 = 0.4016	1051.24	10.38
318.15 K, x1 = 0.498	1077.62	16.26
318.15 K, x1 = 0.5996	1099.62	25.65
318.15 K, x1 = 0.6976	1116.66	37.27
318.15 K, x1 = 0.7969	1130.88	53.38
318.15 K, x1 = 0.9008	1143.26	79.6
318.15 K, x1 = 1	1153.33	118.3
323.15 K, x1 = 0.0998	886.07	1.601
323.15 K, x1 = 0.2003	960.91	2.99
323.15 K, x1 = 0.3006	1011.05	5.215
323.15 K, x1 = 0.4016	1047.55	9.094
323.15 K, x1 = 0.498	1074.02	14.01
323.15 K, x1 = 0.5996	1096.11	21.2
323.15 K, x1 = 0.6976	1113.14	30.75
323.15 K, x1 = 0.7969	1127.39	43.06
323.15 K, x1 = 0.9008	1139.76	62.7
323.15 K, x1 = 1	1149.87	91.22
